Entries after “also recorded” stand apart in the source; their conditions may differ.
Tests used:
[1] = pKa and free amine of the alkalizer; format: physicochemical; settings: at a pH of about 7.5
[2] = Permanent wave evaluation of waving lotions on hair tresses (waving efficiency); settings: for Tress Length (cm) Lt / Percent Waving Efficiency: amine 0.75M with 13.2 wt. % (0.8M) GMT, pH 7.5, 37° C. for 20 minutes; for Tress Length (cm) Lt: length of permed hair measured in the water, shorter = tighter curl
Source text: The pH was adjusted using a 10 wt. % HCl solution. Tresses were rolled onto mandrels and evaluated using the permanent wave evaluation procedure that follows. Procedure for Permanent Wave Evaluation […] 1. A bundle of 16 inch long medium virgin brown hair was secured with beeswax by dipping approximately 2 inches of the root end of the bundled hair into melted wax for 5 seconds. When the wax is cool to the touch, it is shaped into a square and allowed to harden. 2. Hair is broken into smaller bundles, washed with a 10 wt. % sodium lauryl sulfate solution and then rinsed. 3. Hair is sectioned into tresses of 45 hairs and the waxed end is re-waxed to further secure the tress. The wax is allowed to dry, and a piece of tape is wrapped around it to provide a writing surface. […] 4. An 8 cm long, 1.25 cm diameter spiral rod with 25 turns is used. The waxed end of the hair is secured between the 9th and 10th turns using a rubber band. […] 5. A piece of tape, width 2.5 cm, is wrapped sideways around the bottom edge of the hair, covering the bottom 2.5 cm. A 3.4 g alligator clip is used to secure the tape. Using a piece of copper wire as a hook, a 6 oz. weight is hung from the tape at the bottom of the hair. The hair is rolled around the rod, using the weight to provide equal tension during rolling. The weight is removed after rolling, and the bottom tape is secured around the rod with a piece of Tygon tubing. 6. […] The solution completely covers the hair. The test tube is placed in a constant temperature water bath at 37° C. for 20 minutes. 7. The rod is removed and rinsed for 3 minutes under running tap water at approximately 30° C. and a flow rate of approximately 1 liter/minute. The rod is then placed into a new test tube with 10 mL of neutralizer (2 wt. % hydrogen peroxide, 0.05 wt. % polyquat-11, and phosphoric acid to pH 3.1). The rod is removed and rinsed with the 30° C. tap water for 2 minutes. 8. The tress is soaked in a bowl of 30° C. tap water for 5 minutes to allow complete oxidation. The tress is then carefully unrolled from the rod without tension, starting from the bottom and keeping the spiral configuration intact. The tape is cut off the hair using scissors while the hair is still on the rod. […] 10. […] A glass container (10×11.5×4 in) is used in which clear plastic rulers are glued along the front and back walls. A copper wire is secured across the top of the container. The rulers should be lined up to provide a way to accurately measure the hair. A copper wire hook is placed through the tape at the top of the tress and hung on the wire. […] Waving Efficiency After the procedure, the lengths of the tresses were measured in a water bath. The shorter the tress, the tighter the curl and the better the product. The curl is measured from the end of the wax to the end of the curl. [formula] where Li=initial length of tress from wax end to tip Lo=length of tress when wrapped on the rod Lt=length of permed hair from wax end to tip, measured in the water

Row | Compound | free amine [1] | Tress Length (cm) Lt [2] [cm] | performance as alkalizer in waving lotion (in words) ([2]; low pH waving lotion, in combination with a reducing agent) | free amine ([1]; listed as monoethanolamine) [%] | Percent Waving Efficiency [2] [%]
1 | NC(CO)(CO)CO [Tris, tris(hydroxymethyl)amino methane] | about 22% | 15.7 ± 0.9 | effective alkalizer; also recorded: better results than monoethanolamine |  | 
2 | NCCO [Monoethanolamine] | one | 16.1 ± 0.5 |  | 1 | 45.4
3 | N [Ammonia] |  | 15.5 ± 1.2 |  |  | 47.8
